These results are taken from US12291507B2, “Compounds and their use for the treatment of ALPHA1-antitrypsin deficiency” (CENTESSA PHARMACEUTICALS (UK) LIMITED, priority 2019, dated 2025).

T1 sequence (P01009 25-418 E366K): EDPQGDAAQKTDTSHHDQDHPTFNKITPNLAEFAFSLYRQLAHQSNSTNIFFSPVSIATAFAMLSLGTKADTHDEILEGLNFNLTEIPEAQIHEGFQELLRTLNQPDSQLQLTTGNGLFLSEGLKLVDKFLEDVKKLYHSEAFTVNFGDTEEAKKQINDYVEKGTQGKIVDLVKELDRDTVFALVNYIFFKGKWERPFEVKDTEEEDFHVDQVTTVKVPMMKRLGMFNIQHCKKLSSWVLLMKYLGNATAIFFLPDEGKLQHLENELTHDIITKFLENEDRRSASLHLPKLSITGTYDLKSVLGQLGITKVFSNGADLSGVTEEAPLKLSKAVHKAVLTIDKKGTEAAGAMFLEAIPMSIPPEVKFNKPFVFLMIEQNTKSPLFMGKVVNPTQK

The target of one assay is wild-type A1AT (M) (Homo sapiens, UniProt P01009).
Chain of wild-type A1AT (M) (P01009 25-418): as the sequence (P01009 25-418 E366K) above, with K342E counted along it
Assay: not given
Conditions: cited from earlier work.
Turning to `O=S(=O)(O)c1cccc2c(-c3ccc(Nc4ccccc4)c4c(S(=O)(=O)O)cccc34)ccc(Nc3ccccc3)c12` [bis-ANS, 4,4′-dianilino-1,1′-binaphthyl-5,5′-disulfonate], the “binding to wild-type A1AT (M)” value is “not to wild-type A1AT (M)”.

A further assay concerns the target T1, Z A1AT (Homo sapiens, UniProt P01009, E366K).
T1 construct: expressed in transfected cells; host or cells: HEK-Z (human embryonic kidney cells stably transfected with the human Z A1AT gene)
Briefly: A1AT cell secretion assay using HEK-Z cells. The assay is classed as cell-based. The conditions noted are these: 300 nM, 48 h, supernatant A1AT by ELISA, read-out: Median A1AT % increase over vehicle at 300 nM. The procedure:
HEK-Z cells, a human embryonic kidney cell line stably transfected with the human Z A1AT gene, were plated into 96 well plates (3.0×10^5 cells/ml with 200 μl of media/well) overnight at 37° C. in a humidified atmosphere containing 5% CO2. Following incubation cells were washed with 200 μl serum-free media three times and media was replaced with treatments in quadruplicate using serum free media containing either vehicle, 10 μM suberanilohydroxamic acid (SAHA) or a compound of the invention (at concentrations of 10, 33, 100 and 333 nM) for 48 h in a 37° C. incubator in a final volume of 200 μl. At the end of the incubation step the supernatants were removed from the wells, centrifuged at 1000×g at 4° C. for 10 min and were assayed for human A1AT levels by ELISA (Human Serpin A1/α1-antitrypsin duo set ELISA, R& D Systems, DY1268) per manufacturer's instructions.
Briefly, a 96 well plate was coated with human A1AT capture antibody overnight at room temperature (1:180 dilution from stock, 100 μl final volume/well). The capture antibody was then removed and wells washed three times with 300 μl wash buffer (0.05% Tween 20 in PBS) and then 200 μl reagent diluent ([…]) was incubated in each well for 1 h at room temperature. Diluted samples, standards (125, 250, 500, 1000, 2000, 4000 and 8000 pg/ml A1AT) or blanks were then added to each well in duplicate and the plates were covered with a plate sealer and left at room temperature for 2 h. At the end of the sample incubation step, samples were removed and all wells washed as previously and 100 μl detection antibody (1:180 dilution from stock) was added to each well and incubated for a further 2 h at room temperature. Following incubation with detection antibody, supernatant was removed and wells were washed as previously and 100 μl streptavidin-HRP solution (1:200 dilution from stock) was added to each well for 20 min in the dark. After which, 50 μl stop solution (2M H2SO4) was added and optical density (OD) of each well was read at 450 nm with 570 nm blank subtracted from each well using a microplate reader. A 4-parameter logistic curve was constructed using GraphPad Prism 7 and A1AT concentrations were determined in each sample by interpolation from a standard curve and multiplying by the appropriate dilution factor.
Turning to `CN(C)C(=O)c1ccc(Cn2ccc(=O)[nH]c2=O)cc1` [Example 1, 4-((2,4-dioxo-3,4-dihydropyrimidin-1(2H)-yl)methyl)-N,N-dimethylbenzamide], the activation at 0.3 µM stood at 130%.

As to `CNC(=O)c1ccc(Cn2ccc(=O)[nH]c2=O)cc1` [Example 2, 4-((2,4-dioxo-3,4-dihydropyrimidin-1(2H)-yl)methyl)-N-methylbenzamide], the activation at 0.3 µM stood at 175%.

Turning to `CC(C)NC(=O)c1ccc(Cn2ccc(=O)[nH]c2=O)cc1` [Example 3, 4-((2,4-dioxo-3,4-dihydropyrimidin-1(2H)-yl)methyl)-N-isopropylbenzamide], the activation at 0.3 µM was 190%.

With `O=C(NCc1ccc(F)cc1)c1ccc(Cn2ccc(=O)[nH]c2=O)cc1` [Example 4, 4-((2,4-dioxo-3,4-dihydropyrimidin-1(2H)-yl)methyl)-N-(4-fluorobenzyl)benzamide], the activation at 0.3 µM was found to be 170%.

On to `CN(C)C(=O)c1ccc(Cn2c(=O)cc[nH]c2=O)cc1` [Example 5, 4-((2,6-dioxo-3,6-dihydropyrimidin-1(2H)-yl)methyl)-N,N-dimethylbenzamide], for which the activation at 0.3 µM came to 140%.

For `CCN(C)C(=O)c1ccc(Cn2c(=O)cc[nH]c2=O)cc1` [Example 6, 4-((2,6-dioxo-3,6-dihydropyrimidin-1(2H)-yl)methyl)-N-ethyl-N-methylbenzamide], the activation at 0.3 µM was found to be 190%.

As to `CC(C)N(C)C(=O)c1ccc(Cn2c(=O)cc[nH]c2=O)cc1` [Example 7, 4-((2,6-dioxo-3,6-dihydropyrimidin-1(2H)-yl)methyl)-N-isopropyl-N-methylbenzamide], the activation at 0.3 µM came out at 170%.

In the case of `CN(Cc1ccccc1)C(=O)c1ccc(Cn2c(=O)cc[nH]c2=O)cc1` [Example 8, N-benzyl-4-((2,6-dioxo-3,6-dihydropyrimidin-1(2H)-yl)methyl)-N-methylbenzamide], the activation at 0.3 µM came to 175%.

Regarding `CN(CC(F)(F)F)C(=O)c1ccc(Cn2c(=O)cc[nH]c2=O)cc1` [Example 9, 4-((2,6-dioxo-3,6-dihydropyrimidin-1(2H)-yl)methyl)-N-methyl-N-(2,2,2-trifluoroethyl)benzamide], the activation at 0.3 µM was 180%.
